Test results as given in PubChem BioAssay AID2060620 (Molecular Pharmacology Branch, DTP, NCI, 2025).

Tested on: 328373-195-R-J1-PDC complex spheroids, viability % test/control
Assay: Anticancer human tumor 328373-195-R-J1-PDC patient-derived head and neck squamous carcinoma cell line growth inhibition [CLK]
Conditions: for IC50: curve of first compound; for viability, T/C: stronger effect = lower value
Method in brief: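 Multi-cell-type spheroids combined patient-derived tumor cells with HUVEC endothelial cells and human mesenchymal stem cells. Paired agents were dosed in half-log steps down from about clinical Cmax, or from 10 microM where Cmax was unknown.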

[1] = second compound 0.0316 µM, first compound 0.0316 µM
[2] = second compound 0.0316 µM, first compound 0.1 µM
[3] = second compound 0.1 µM, first compound 0.0316 µM
[4] = second compound 0.1 µM, first compound 0.1 µM
[5] = second compound 0.316 µM, first compound 0.0316 µM
[6] = second compound 0.316 µM, first compound 0.1 µM
[7] = second compound 1 µM, first compound 0.0316 µM
[8] = second compound 1 µM, first compound 0.1 µM
[9] = second compound 3.16 µM, first compound 0.0316 µM
[10] = second compound 3.16 µM, first compound 0.1 µM
[11] = second compound 10 µM, first compound 0.0316 µM
[12] = second compound 10 µM, first compound 0.1 µM
[13] = second compound 0.0316 µM, first compound 0.316 µM
[14] = second compound 0.0316 µM, first compound 1 µM
[15] = second compound 0.0316 µM, first compound 3.16 µM
[16] = second compound 0.0316 µM, first compound 10 µM
[17] = second compound 0.1 µM, first compound 0.316 µM
[18] = second compound 0.1 µM, first compound 1 µM
[19] = second compound 0.1 µM, first compound 3.16 µM
[20] = second compound 0.1 µM, first compound 10 µM
[21] = second compound 0.316 µM, first compound 0.316 µM
[22] = second compound 0.316 µM, first compound 1 µM
[23] = second compound 0.316 µM, first compound 3.16 µM
[24] = second compound 0.316 µM, first compound 10 µM
[25] = second compound 1 µM, first compound 0.316 µM
[26] = second compound 1 µM, first compound 1 µM
[27] = second compound 1 µM, first compound 3.16 µM
[28] = second compound 1 µM, first compound 10 µM
[29] = second compound 3.16 µM, first compound 0.316 µM
[30] = second compound 3.16 µM, first compound 1 µM
[31] = second compound 3.16 µM, first compound 3.16 µM
[32] = second compound 3.16 µM, first compound 10 µM
[33] = second compound 10 µM, first compound 0.316 µM
[34] = second compound 10 µM, first compound 1 µM
[35] = second compound 10 µM, first compound 3.16 µM
[36] = second compound 10 µM, first compound 10 µM
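Note: spheroids exposed to the agents for 7 days.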

## Cn1ncnc1[C@H]1c2n[nH]c(=O)c3cc(F)cc(c23)N[C@@H]1c1ccc(F)cc1 + CN1CCN(c2cc(C(=O)Nc3cc4cc(-c5cnn(C)c5)ccc4cn3)ccn2)CC1
Second compound 0.0316 µM
  IC50: > 100 nM
Second compound 0.1 µM
  IC50: > 100 nM
Second compound 0.316 µM
  IC50: < 0.316 nM
Second compound 1 µM
  IC50: < 0.316 nM
Second compound 3.16 µM
  IC50: < 0.316 nM
Second compound 10 µM
  IC50: < 0.316 nM
Second compound 0.0316 µM, first compound 0.000316 µM
  viability, T/C: 93.5%
Second compound 0.0316 µM, first compound 0.001 µM
  viability, T/C: 84.3%
Second compound 0.0316 µM, first compound 0.00316 µM
  viability, T/C: 91.8%
Second compound 0.0316 µM, first compound 0.01 µM
  viability, T/C: 119%
[1]
  viability, T/C: 95.1%
[2]
  viability, T/C: 82.2%
Second compound 0.1 µM, first compound 0.000316 µM
  viability, T/C: 80.5%
Second compound 0.1 µM, first compound 0.001 µM
  viability, T/C: 78.7%
Second compound 0.1 µM, first compound 0.00316 µM
  viability, T/C: 83.9%
Second compound 0.1 µM, first compound 0.01 µM
  viability, T/C: 86.8%
[3]
  viability, T/C: 85.8%
[4]
  viability, T/C: 59.7%
Second compound 0.316 µM, first compound 0.000316 µM
  viability, T/C: 29.9%
Second compound 0.316 µM, first compound 0.001 µM
  viability, T/C: 33.9%
Second compound 0.316 µM, first compound 0.00316 µM
  viability, T/C: 28.4%
Second compound 0.316 µM, first compound 0.01 µM
  viability, T/C: 27%
[5]
  viability, T/C: 21.4%
[6]
  viability, T/C: 18.4%
Second compound 1 µM, first compound 0.000316 µM
  viability, T/C: 0.11%
Second compound 1 µM, first compound 0.001 µM
  viability, T/C: 2%
Second compound 1 µM, first compound 0.00316 µM
  viability, T/C: 2.06%
Second compound 1 µM, first compound 0.01 µM
  viability, T/C: 0.15%
[7]
  viability, T/C: 1.32%
[8]
  viability, T/C: 2.11%
Second compound 3.16 µM, first compound 0.000316 µM
  viability, T/C: 0.08%
Second compound 3.16 µM, first compound 0.001 µM
  viability, T/C: 0.77%
Second compound 3.16 µM, first compound 0.00316 µM
  viability, T/C: 4.18%
Second compound 3.16 µM, first compound 0.01 µM
  viability, T/C: 0.08%
[9]
  viability, T/C: 1.73%
[10]
  viability, T/C: 1.99%
Second compound 10 µM, first compound 0.000316 µM
  viability, T/C: 0.17%
Second compound 10 µM, first compound 0.001 µM
  viability, T/C: 0.14%
Second compound 10 µM, first compound 0.00316 µM
  viability, T/C: 1.47%
Second compound 10 µM, first compound 0.01 µM
  viability, T/C: 0.12%
[11]
  viability, T/C: 2.53%
[12]
  viability, T/C: 1.76%

## Nc1ccn(C2OC(CO)C(O)C2(F)F)c(=O)n1 (stereo unspecified) + CN1CCN(c2cc(C(=O)Nc3cc4cc(-c5cnn(C)c5)ccc4cn3)ccn2)CC1
Second compound 0.0316 µM
  IC50: < 31.6 nM
Second compound 0.1 µM
  IC50: < 31.6 nM
Second compound 0.316 µM
  IC50: < 31.6 nM
Second compound 1 µM
  IC50: < 31.6 nM
Second compound 3.16 µM
  IC50: < 31.6 nM
Second compound 10 µM
  IC50: < 31.6 nM
[1]
  viability, T/C: 3.79%
[2]
  viability, T/C: 2.43%
[13]
  viability, T/C: 4.26%
[14]
  viability, T/C: 2.86%
[15]
  viability, T/C: 2.91%
[16]
  viability, T/C: 3.08%
[3]
  viability, T/C: 4.42%
[4]
  viability, T/C: 3.79%
[17]
  viability, T/C: 4.8%
[18]
  viability, T/C: 3.59%
[19]
  viability, T/C: 3.13%
[20]
  viability, T/C: 4.21%
[5]
  viability, T/C: 4.28%
[6]
  viability, T/C: 2.41%
[21]
  viability, T/C: 3.74%
[22]
  viability, T/C: 1.82%
[23]
  viability, T/C: 1.62%
[24]
  viability, T/C: 5.1%
[7]
  viability, T/C: 0.09%
[8]
  viability, T/C: 1.02%
[25]
  viability, T/C: 2.83%
[26]
  viability, T/C: 0.09%
[27]
  viability, T/C: 2.43%
[28]
  viability, T/C: 0.07%
[9]
  viability, T/C: 1.17%
[10]
  viability, T/C: 1.23%
[29]
  viability, T/C: 0.12%
[30]
  viability, T/C: 1.22%
[31]
  viability, T/C: 0.16%
[32]
  viability, T/C: 0.38%
[11]
  viability, T/C: 2.37%
[12]
  viability, T/C: 0.17%
[33]
  viability, T/C: 0.7%
[34]
  viability, T/C: 0.17%
[35]
  viability, T/C: 1.04%
[36]
  viability, T/C: 0.35%

## O=C(c1cc(Cc2n[nH]c(=O)c3ccccc23)ccc1F)N1CCN(C(=O)C2CC2)CC1 + CN1CCN(c2cc(C(=O)Nc3cc4cc(-c5cnn(C)c5)ccc4cn3)ccn2)CC1
Second compound 0.0316 µM
  IC50: > 10000 nM
Second compound 0.1 µM
  IC50: > 10000 nM
Second compound 0.316 µM
  IC50: < 31.6 nM
Second compound 1 µM
  IC50: < 31.6 nM
Second compound 3.16 µM
  IC50: < 31.6 nM
Second compound 10 µM
  IC50: < 31.6 nM
[1]
  viability, T/C: 92.9%
[2]
  viability, T/C: 91%
[13]
  viability, T/C: 98.9%
[14]
  viability, T/C: 92.7%
[15]
  viability, T/C: 90.4%
[16]
  viability, T/C: 78.5%
[3]
  viability, T/C: 76.8%
[4]
  viability, T/C: 81.4%
[17]
  viability, T/C: 86.4%
[18]
  viability, T/C: 83.9%
[19]
  viability, T/C: 79%
[20]
  viability, T/C: 57.1%
[5]
  viability, T/C: 23.5%
[6]
  viability, T/C: 29.2%
[21]
  viability, T/C: 23.1%
[22]
  viability, T/C: 27.4%
[23]
  viability, T/C: 24.4%
[24]
  viability, T/C: 17.1%
[7]
  viability, T/C: 0.23%
[8]
  viability, T/C: 0.16%
[25]
  viability, T/C: 1.14%
[26]
  viability, T/C: 0.33%
[27]
  viability, T/C: 2.95%
[28]
  viability, T/C: 2.82%
[9]
  viability, T/C: 2.14%
[10]
  viability, T/C: 2.06%
[29]
  viability, T/C: 2.2%
[30]
  viability, T/C: 1.77%
[31]
  viability, T/C: 3.1%
[32]
  viability, T/C: 1.47%
[11]
  viability, T/C: 0.09%
[12]
  viability, T/C: 3.55%
[33]
  viability, T/C: 1.83%
[34]
  viability, T/C: 0.13%
[35]
  viability, T/C: 3.63%
[36]
  viability, T/C: 0.27%
